From PubChem BioAssay (NCI)
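Cultured in 96-well plates, cells were exposed to test compound for 48 hours across five concentrations. The concentration for 50% growth inhibition is given as GI50. At the TGI there is no net growth.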

Legend:
Assay in all cases: growth of human tumour cells (NCI), 48 h; in the data active = GI50 below about 0.43 µM; inactive = the rest
KM12 colon = system: KM12 colon
LOX IMVI melanoma = system: LOX IMVI melanoma
SK-MEL-5 melanoma = system: SK-MEL-5 melanoma
SK-MEL-28 melanoma = system: SK-MEL-28 melanoma
HCT-15 colon = system: HCT-15 colon
NCI-H460 lung = system: NCI-H460 lung
CAKI-1 renal = system: CAKI-1 renal
OVCAR-8 ovarian = system: OVCAR-8 ovarian
SK-MEL-2 melanoma = system: SK-MEL-2 melanoma
HOP-92 NSCLC = system: HOP-92 NSCLC
PC-3 prostate = system: PC-3 prostate
MDA-MB-435 = system: MDA-MB-435
RPMI-8226 leukemia = system: RPMI-8226 leukemia
UO-31 renal = system: UO-31 renal
A549 NSCLC = system: A549 NSCLC
U251 CNS = system: U251 CNS
UACC-257 melanoma = system: UACC-257 melanoma
NCI/ADR-RES ovarian = system: NCI/ADR-RES ovarian
CCRF-CEM leukemia = system: CCRF-CEM leukemia
OVCAR-3 ovarian = system: OVCAR-3 ovarian
786-0 renal = system: 786-0 renal
COLO 205 colon = system: COLO 205 colon
UACC-62 melanoma = system: UACC-62 melanoma
HCT-116 colon = system: HCT-116 colon
IGROV1 ovarian = system: IGROV1 ovarian
SF-539 CNS = system: SF-539 CNS
M14 melanoma = system: M14 melanoma
A498 renal = system: A498 renal
NCI-H226 lung = system: NCI-H226 lung
MCF7 breast = system: MCF7 breast
HCC-2998 colon = system: HCC-2998 colon
NCI-H522 lung = system: NCI-H522 lung
OVCAR-4 ovarian = system: OVCAR-4 ovarian
SK-OV-3 ovarian = system: SK-OV-3 ovarian
NCI-H23 lung = system: NCI-H23 lung
SW-620 colon = system: SW-620 colon
SR leukemia = system: SR leukemia
SNB-75 CNS = system: SNB-75 CNS
SF-295 CNS = system: SF-295 CNS
SNB-19 CNS = system: SNB-19 CNS
MDA-MB-231 breast = system: MDA-MB-231 breast
HOP-62 NSCLC = system: HOP-62 NSCLC
HL-60(TB) leukemia = system: HL-60(TB) leukemia
RXF 393 renal = system: RXF 393 renal
ACHN renal = system: ACHN renal
BT-549 breast = system: BT-549 breast
HS 578T breast = system: HS 578T breast
TK-10 renal = system: TK-10 renal
SN12C renal = system: SN12C renal
HT29 colon = system: HT29 colon
K-562 leukemia = system: K-562 leukemia
SF-268 CNS = system: SF-268 CNS
MOLT-4 leukemia = system: MOLT-4 leukemia
OVCAR-5 ovarian = system: OVCAR-5 ovarian
DU-145 prostate = system: DU-145 prostate
MALME-3M melanoma = system: MALME-3M melanoma
T-47D breast = system: T-47D breast

Cn1cc(C2=C(c3c4n(c5ccccc35)CCN(C(N)=S)C4)C(=O)NC2=O)c2ccccc21
> 20.8 µM: TGI (CAKI-1 renal)
10.6 µM: TGI (SNB-75 CNS) | TGI (RXF 393 renal)
> 17.2 µM: TGI (MCF7 breast)
> 15.1 µM: TGI (SR leukemia)
10.8 µM: TGI (SF-295 CNS)
> 16.7 µM: TGI (SK-MEL-5 melanoma)
inactive: GI50 (KM12 colon) 3.05 µM | GI50 (LOX IMVI melanoma) 2.5 µM | GI50 (SK-MEL-5 melanoma) 2.67 µM | GI50 (SK-MEL-28 melanoma) 5.34 µM | GI50 (HCT-15 colon) 6.31 µM | GI50 (NCI-H460 lung) 6.91 µM | GI50 (CAKI-1 renal) 4.85 µM | GI50 (OVCAR-8 ovarian) 7.13 µM | GI50 (SK-MEL-2 melanoma) 4.32 µM | GI50 (HOP-92 NSCLC) 8.82 µM | GI50 (PC-3 prostate) 4.92 µM | GI50 (MDA-MB-435) 0.883 µM | GI50 (RPMI-8226 leukemia) 12.9 µM | GI50 (UO-31 renal) 4.37 µM | GI50 (A549 NSCLC) 5.55 µM | GI50 (U251 CNS) 4.49 µM | GI50 (UACC-257 melanoma) 7.11 µM | GI50 (NCI/ADR-RES ovarian) 9.48 µM | GI50 (CCRF-CEM leukemia) 4.61 µM | GI50 (OVCAR-3 ovarian) 1.75 µM | GI50 (786-0 renal) 5.23 µM | GI50 (COLO 205 colon) 5.97 µM | GI50 (UACC-62 melanoma) 4.27 µM | GI50 (HCT-116 colon) 4.11 µM | GI50 (IGROV1 ovarian) 7.82 µM | GI50 (SF-539 CNS) 1.48 µM | GI50 (M14 melanoma) 4.71 µM | GI50 (A498 renal) 1.59 µM | GI50 (NCI-H226 lung) 5.84 µM | GI50 (MCF7 breast) 1.24 µM | GI50 (HCC-2998 colon) 6.13 µM | GI50 (NCI-H522 lung) 1.95 µM | GI50 (OVCAR-4 ovarian) 6.87 µM | GI50 (SK-OV-3 ovarian) 4.51 µM | GI50 (NCI-H23 lung) 7.34 µM | GI50 (SW-620 colon) 3.45 µM | GI50 (SR leukemia) 1.35 µM | GI50 (SF-295 CNS) 2.64 µM | GI50 (SNB-19 CNS) 12.8 µM | GI50 (MDA-MB-231 breast) 6.95 µM | GI50 (HOP-62 NSCLC) 6.81 µM | GI50 (HL-60(TB) leukemia) 2.33 µM | GI50 (RXF 393 renal) 2.34 µM | GI50 (ACHN renal) 5.95 µM | GI50 (BT-549 breast) 6.83 µM | GI50 (HS 578T breast) 0.88 µM | GI50 (TK-10 renal) 8.64 µM | GI50 (SN12C renal) 6.99 µM | GI50 (HT29 colon) 2.28 µM | GI50 (K-562 leukemia) 1.59 µM | GI50 (SF-268 CNS) 5.58 µM | GI50 (MOLT-4 leukemia) 5.12 µM | GI50 (OVCAR-5 ovarian) 16 µM | GI50 (DU-145 prostate) 8.04 µM | GI50 (MALME-3M melanoma) > 11 µM | GI50 (T-47D breast) 10.4 µM
5.98 µM: TGI (MDA-MB-435)
> 23.1 µM: TGI (DU-145 prostate)
> 25 µM: TGI (LOX IMVI melanoma) | TGI (SK-MEL-28 melanoma) | TGI (HCT-15 colon) | TGI (OVCAR-8 ovarian) | TGI (HOP-92 NSCLC) | TGI (PC-3 prostate) | TGI (RPMI-8226 leukemia) | TGI (A549 NSCLC) | TGI (UACC-257 melanoma) | TGI (NCI/ADR-RES ovarian) | TGI (CCRF-CEM leukemia) | TGI (786-0 renal) | TGI (UACC-62 melanoma) | TGI (M14 melanoma) | TGI (OVCAR-4 ovarian) | TGI (SK-OV-3 ovarian) | TGI (NCI-H23 lung) | TGI (SW-620 colon) | TGI (SNB-19 CNS) | TGI (HOP-62 NSCLC) | TGI (ACHN renal) | TGI (BT-549 breast) | TGI (SN12C renal) | TGI (HT29 colon) | TGI (SF-268 CNS) | TGI (OVCAR-5 ovarian) | TGI (MALME-3M melanoma) | TGI (T-47D breast)
9.64 µM: TGI (A498 renal)
> 21.6 µM: TGI (COLO 205 colon)
> 20.9 µM: TGI (MOLT-4 leukemia)
13 µM: TGI (SK-MEL-2 melanoma)
8.05 µM: TGI (HL-60(TB) leukemia)
> 19 µM: TGI (NCI-H226 lung)
> 15 µM: TGI (NCI-H522 lung)
> 23.7 µM: TGI (TK-10 renal)
> 21.7 µM: TGI (UO-31 renal)
> 23.2 µM: TGI (MDA-MB-231 breast)
20.8 µM: TGI (HCC-2998 colon)
11.1 µM: TGI (HS 578T breast)
> 22.8 µM: TGI (NCI-H460 lung)
7.36 µM: TGI (OVCAR-3 ovarian)
> 17 µM: TGI (K-562 leukemia)
> 16.8 µM: TGI (HCT-116 colon)
11.2 µM: TGI (U251 CNS)
7.86 µM: TGI (SF-539 CNS)
active: GI50 (SNB-75 CNS) 0.36 µM
> 19.1 µM: TGI (IGROV1 ovarian)
9.69 µM: TGI (KM12 colon)
